Values quoted from earlier work in patent US20250000878A1 (priority 2014, published 2025).

Experiments:
beta amyloid = conditions: AD transgenic mice
[1] = in vivo
[2] = test system: patients with possible or probable AD; conditions: 0.1-0.2 mg twice daily, active group
[3] = test system: patients with mild to moderate VaD; conditions: 100 mcg twice daily for 12 weeks
[4] = 0.2 mg pure huperzine A orally

## Cn1c(=O)c2c(ncn2C)n(C)c1=O [Caffeine]
Beta amyloid
  reduction of beta amyloid deposition, entorhinal cortex: 46%
  reduction of beta amyloid deposition, hippocampus: 40%
[1]
  half life: 4 to 6 h
  time to peak blood levels: within one hour

## C/C=C1\[C@H]2C=C(C)C[C@]1(N)c1ccc(=O)[nH]c1C2 [Huperzine A]
[2]
  proportion of patients with a four point improvement on the ADAS-cog: 56%
[3]
  cognitive function: significantly improved
[4]
  terminal half life: approximately 6 hours

## C[C@]12CC[C@H](O)CC1=CC[C@@H]1[C@@H]2CC[C@]2(C)C(=O)CC[C@@H]12 [DHEA, dehydroepiandrosterone]
Elderly men and women; 50 mg per day, one year
  insulin resistance: significant improvement
Elderly men and women; 50 mg per day, one year, mean age 70 years
  reduction of visceral fat measured by MRI: about 10%
Elderly men and women; vs placebo controls
  circulating cytokines TNF alpha and IL-6: significant decrease
